Results from publication PMC6910612 (Translational Vision Science & Technology, 2019).
Blank lines part the entries; values can stand above or below the molecule they belong to.

What was measured:
wild-type opsin = wild-type opsin (Homo sapiens, UniProt P08100); test: 9-cis-retinal binding to opsin; conditions: 3.0 μM purified wild-type opsin
opsin = conditions: cited from earlier work
[1] = test system: P23H, E181K and T17M rhodopsin; conditions: cells; cited from earlier work
P23H rhodopsin = conditions: P23H knock-in mice; cited from earlier work
P23H Rho transgenic rats = conditions: cited from earlier work

concentration at which opsin was saturated (wild-type opsin): 5 µM
SMILES: CC1=C(/C=C/C(C)=C\C=C\C(C)=C\C=O)C(C)(C)CCC1 [9-cis-retinal]

SMILES: CC(=C/C(=O)O)/C=C/C=C(\C)C1C=C2C(C)(C)CCCC2(C)O1 (stereo not drawn) [13-cis-5,8-ERA]
competition with 9-cis-retinal for binding to opsin (opsin): appeared to compete with 9-cis-retinal for binding to opsin
folding and transport of rhodopsin mutants [1]: more effective in promoting the folding and transport of the P23H and E181K mutations than it was for the T17M mutation

SMILES: CN(C)C(=N)N=C(N)N [metformin]
transport of P23H rhodopsin to outer segments (P23H rhodopsin): increased transport of P23H rhodopsin to outer segments
retinal degeneration (P23H Rho transgenic rats): increased retinal degeneration
